Tests used:
Type in all cases: cell-based
[1] = biological target: GluN2B-containing NMDA receptors (Homo sapiens, UniProt Q13224); experiment: Two-electrode voltage-clamp recordings from Xenopus laevis oocytes, GluN2B; details: for I10 μM/ICONTROL (mean ± SEM, %) Glu N2B: 10 μM test compound with glutamate 100 μM and glycine 30 μM, Tables 1-5; for I10 μM/ICONTROL (mean ± SEM, %) Glu N2B / maximal potentiation Glu N2B: percent of response without compound; for EC50 / maximal potentiation Glu N2B: Table 1; for EC50: glutamate 100 μM, glycine 30 μM, Hill fit, read-out: EC50 Glu N2B; for maximal potentiation Glu N2B: in brackets after EC50
Procedure: (§1) Xenopus laevis oocytes were injected with cRNA encoding the NMDA receptor subunits. Two to seven days after injection, two-electrode voltage-clamp recordings were performed. Extracellular solutions were made from a solutions containing (in mM) 90 NaCl, 3 KCl, 10 HEPES, 0.5 BaCl2, 0.01 EDTA (pH 7.4 with NaOH). Voltage and current electrodes were filled with 0.3 M and 3.0 M KCl, respectively.
(§2) Potency was determined by adding increasing concentrations of test compound to saturating concentrations of glutamate (100 μM) and glycine (30 μM), and the response amplitude measured. The response in the presence of each concentration of test compound plus agonists was expressed as a percent of the response in the absence of test compound.

[2] = biological target: GluN2C-containing NMDA receptors (Homo sapiens, UniProt Q14957); experiment: Two-electrode voltage-clamp recordings from Xenopus laevis oocytes, GluN2C; details: for I10 μM/ICONTROL (mean ± SEM, %) Glu N2C: 10 μM test compound with glutamate 100 μM and glycine 30 μM, Tables 1-5; for I10 μM/ICONTROL (mean ± SEM, %) Glu N2C / maximal potentiation Glu N2C: percent of response without compound; for EC50 / maximal potentiation Glu N2C: Table 1; for EC50: glutamate 100 μM, glycine 30 μM, Hill fit, read-out: EC50 Glu N2C; for maximal potentiation Glu N2C: in brackets after EC50
Procedure: as §1, §2

[3] = biological target: GluN2D-containing NMDA receptors (Homo sapiens, UniProt O15399); experiment: Two-electrode voltage-clamp recordings from Xenopus laevis oocytes, GluN2D; details: for I10 μM/ICONTROL (mean ± SEM, %) Glu N2D: 10 μM test compound with glutamate 100 μM and glycine 30 μM, Tables 1-5; for I10 μM/ICONTROL (mean ± SEM, %) Glu N2D / maximal potentiation Glu N2D: percent of response without compound; for EC50 / maximal potentiation Glu N2D: Table 1; for EC50: glutamate 100 μM, glycine 30 μM, Hill fit, read-out: EC50 Glu N2D; for maximal potentiation Glu N2D: in brackets after EC50
Procedure: as §1, §2

Chain of GluN2B-containing NMDA receptors (Q13224 27-1484, other chains not shown): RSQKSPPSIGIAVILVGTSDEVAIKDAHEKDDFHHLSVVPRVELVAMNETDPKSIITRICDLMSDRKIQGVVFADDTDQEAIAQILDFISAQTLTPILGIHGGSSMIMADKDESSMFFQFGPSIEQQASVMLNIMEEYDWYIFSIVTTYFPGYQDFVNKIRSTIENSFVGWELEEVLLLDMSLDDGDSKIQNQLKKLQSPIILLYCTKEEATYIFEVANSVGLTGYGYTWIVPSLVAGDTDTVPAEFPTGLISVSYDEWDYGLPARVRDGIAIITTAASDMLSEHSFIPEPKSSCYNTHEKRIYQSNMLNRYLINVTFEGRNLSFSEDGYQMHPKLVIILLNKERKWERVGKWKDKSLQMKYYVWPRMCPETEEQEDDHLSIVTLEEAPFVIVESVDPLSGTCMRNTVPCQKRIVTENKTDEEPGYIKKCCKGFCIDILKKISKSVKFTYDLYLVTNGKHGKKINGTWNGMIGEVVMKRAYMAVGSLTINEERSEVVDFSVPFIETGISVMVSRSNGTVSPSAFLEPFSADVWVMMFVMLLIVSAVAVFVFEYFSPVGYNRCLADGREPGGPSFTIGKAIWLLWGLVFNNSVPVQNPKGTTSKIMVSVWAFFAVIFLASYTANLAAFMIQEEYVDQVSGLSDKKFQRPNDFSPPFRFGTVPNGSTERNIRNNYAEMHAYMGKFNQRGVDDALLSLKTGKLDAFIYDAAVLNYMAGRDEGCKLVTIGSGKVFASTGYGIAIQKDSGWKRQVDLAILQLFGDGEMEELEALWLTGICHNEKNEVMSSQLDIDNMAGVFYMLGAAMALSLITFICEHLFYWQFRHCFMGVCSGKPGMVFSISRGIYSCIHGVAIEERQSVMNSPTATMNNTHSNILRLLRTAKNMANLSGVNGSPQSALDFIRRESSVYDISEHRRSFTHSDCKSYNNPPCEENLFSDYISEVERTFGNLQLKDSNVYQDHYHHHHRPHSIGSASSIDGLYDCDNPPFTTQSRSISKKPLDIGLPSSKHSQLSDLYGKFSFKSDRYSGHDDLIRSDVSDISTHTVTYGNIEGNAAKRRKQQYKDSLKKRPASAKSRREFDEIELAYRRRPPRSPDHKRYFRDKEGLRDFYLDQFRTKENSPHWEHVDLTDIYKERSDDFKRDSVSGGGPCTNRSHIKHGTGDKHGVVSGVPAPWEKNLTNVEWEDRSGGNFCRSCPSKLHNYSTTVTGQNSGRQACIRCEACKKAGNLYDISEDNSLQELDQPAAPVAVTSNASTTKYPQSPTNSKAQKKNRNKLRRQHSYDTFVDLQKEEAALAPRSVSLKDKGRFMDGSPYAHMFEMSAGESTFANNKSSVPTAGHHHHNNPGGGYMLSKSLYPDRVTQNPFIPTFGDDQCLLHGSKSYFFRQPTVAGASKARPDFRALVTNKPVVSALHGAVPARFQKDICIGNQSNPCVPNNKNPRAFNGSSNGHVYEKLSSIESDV
Chain of GluN2D-containing NMDA receptors (O15399 28-1336, other chains not shown): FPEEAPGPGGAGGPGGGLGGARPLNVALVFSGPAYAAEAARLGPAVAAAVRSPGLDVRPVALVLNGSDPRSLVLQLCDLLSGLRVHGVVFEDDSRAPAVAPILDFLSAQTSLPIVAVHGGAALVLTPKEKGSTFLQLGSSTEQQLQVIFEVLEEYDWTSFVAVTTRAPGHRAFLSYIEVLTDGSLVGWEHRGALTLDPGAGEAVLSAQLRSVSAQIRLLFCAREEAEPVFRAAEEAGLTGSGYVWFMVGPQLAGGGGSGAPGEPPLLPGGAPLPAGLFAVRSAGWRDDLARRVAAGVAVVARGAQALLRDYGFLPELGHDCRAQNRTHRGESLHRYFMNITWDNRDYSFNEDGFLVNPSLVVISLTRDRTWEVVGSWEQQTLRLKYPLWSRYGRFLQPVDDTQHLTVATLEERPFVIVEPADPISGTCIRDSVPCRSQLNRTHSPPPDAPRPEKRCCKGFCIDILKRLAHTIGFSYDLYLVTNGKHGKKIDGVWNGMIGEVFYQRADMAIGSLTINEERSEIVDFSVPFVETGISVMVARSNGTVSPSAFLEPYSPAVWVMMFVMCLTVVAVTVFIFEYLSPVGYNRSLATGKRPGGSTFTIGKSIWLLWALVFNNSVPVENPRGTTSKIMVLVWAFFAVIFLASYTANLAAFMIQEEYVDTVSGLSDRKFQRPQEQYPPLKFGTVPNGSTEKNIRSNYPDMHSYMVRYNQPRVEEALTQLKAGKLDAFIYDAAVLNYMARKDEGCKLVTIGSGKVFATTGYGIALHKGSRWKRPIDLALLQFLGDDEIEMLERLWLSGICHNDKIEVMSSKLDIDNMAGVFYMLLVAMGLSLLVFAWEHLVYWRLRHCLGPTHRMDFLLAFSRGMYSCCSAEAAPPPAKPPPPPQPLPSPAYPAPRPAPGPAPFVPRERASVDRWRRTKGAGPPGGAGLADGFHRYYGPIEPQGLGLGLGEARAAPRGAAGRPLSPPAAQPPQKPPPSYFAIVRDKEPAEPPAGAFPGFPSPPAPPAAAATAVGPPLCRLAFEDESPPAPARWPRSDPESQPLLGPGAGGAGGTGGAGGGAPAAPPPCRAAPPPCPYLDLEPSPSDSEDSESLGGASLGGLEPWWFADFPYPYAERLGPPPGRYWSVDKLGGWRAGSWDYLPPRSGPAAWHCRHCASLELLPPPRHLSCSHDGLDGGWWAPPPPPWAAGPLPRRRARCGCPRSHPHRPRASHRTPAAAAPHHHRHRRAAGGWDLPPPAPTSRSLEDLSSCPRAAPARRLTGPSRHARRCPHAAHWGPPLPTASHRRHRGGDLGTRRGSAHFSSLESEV
Chain of GluN2C-containing NMDA receptors (Q14957 20-1233, other chains not shown): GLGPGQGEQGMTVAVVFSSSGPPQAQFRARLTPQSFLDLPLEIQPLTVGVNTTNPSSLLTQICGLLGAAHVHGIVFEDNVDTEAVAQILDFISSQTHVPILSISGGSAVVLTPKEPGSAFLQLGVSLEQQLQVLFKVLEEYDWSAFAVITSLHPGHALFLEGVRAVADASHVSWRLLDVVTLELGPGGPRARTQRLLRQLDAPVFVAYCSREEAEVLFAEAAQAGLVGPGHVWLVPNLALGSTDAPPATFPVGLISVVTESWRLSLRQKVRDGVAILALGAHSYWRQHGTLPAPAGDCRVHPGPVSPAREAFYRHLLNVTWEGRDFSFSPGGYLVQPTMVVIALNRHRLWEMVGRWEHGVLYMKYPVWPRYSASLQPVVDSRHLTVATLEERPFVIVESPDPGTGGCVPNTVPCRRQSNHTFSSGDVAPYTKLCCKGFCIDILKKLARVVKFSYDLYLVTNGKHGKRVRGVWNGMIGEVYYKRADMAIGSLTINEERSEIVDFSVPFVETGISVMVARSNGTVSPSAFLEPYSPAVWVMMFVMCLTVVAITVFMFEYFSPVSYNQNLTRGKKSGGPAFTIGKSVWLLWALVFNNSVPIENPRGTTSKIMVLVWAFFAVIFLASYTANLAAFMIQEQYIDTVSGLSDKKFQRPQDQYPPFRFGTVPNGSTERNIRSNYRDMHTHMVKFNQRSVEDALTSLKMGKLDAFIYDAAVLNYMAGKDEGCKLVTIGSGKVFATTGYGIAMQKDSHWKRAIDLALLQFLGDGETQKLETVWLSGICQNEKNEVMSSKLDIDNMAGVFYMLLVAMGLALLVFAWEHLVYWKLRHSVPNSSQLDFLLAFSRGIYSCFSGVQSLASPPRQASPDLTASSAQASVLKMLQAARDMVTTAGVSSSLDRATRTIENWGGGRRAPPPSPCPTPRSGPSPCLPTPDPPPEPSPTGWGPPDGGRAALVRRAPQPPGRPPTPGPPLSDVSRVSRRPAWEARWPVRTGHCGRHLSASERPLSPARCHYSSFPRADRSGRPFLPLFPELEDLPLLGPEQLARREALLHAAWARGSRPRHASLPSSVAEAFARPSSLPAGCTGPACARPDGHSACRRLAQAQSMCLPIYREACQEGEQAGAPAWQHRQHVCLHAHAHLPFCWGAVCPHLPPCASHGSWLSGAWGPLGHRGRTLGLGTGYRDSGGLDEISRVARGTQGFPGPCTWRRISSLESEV

Row | Structure (SMILES) | I10 μM/ICONTROL (mean ± SEM, %) Glu N2B [1] [%] | EC50 [1] [µM] | maximal potentiation Glu N2B [1] [%] | I10 μM/ICONTROL (mean ± SEM, %) Glu N2C [2] [%] | EC50 [2] [µM] | maximal potentiation Glu N2C [2] [%] | I10 μM/ICONTROL (mean ± SEM, %) Glu N2D [3] [%] | EC50 [3] [µM] | maximal potentiation Glu N2D [3] [%]
1 | Cc1sc2ncn(CC(=O)N3CCCC3)c(=O)c2c1-c1cccc(Br)c1 [3-Br—Ph / Me] | 172 ± 8.7 | 11 | 266 | 241 ± 19.7 | 17 | 568 | 239 ± 11.5 | 21 | 687
2 | Cc1sc2ncn(CC(=O)N3CCCC3)c(=O)c2c1-c1cccc(C(F)(F)F)c1 [3-CF3—Ph / Me] | 211 ± 11.3 | 6 | 282 | 368 ± 29.0 | 13 | 748 | 480 ± 74.3 | 25 | 1735
3 | Cc1sc2ncn(CC(=O)N3CCCC3)c(=O)c2c1-c1cccc(C#N)c1 [3-CN—Ph / Me] | 147 ± 4.1 | – | – | 190 ± 4.2 | – | – | 177 ± 6.2 | – | –
4 | Cc1sc2ncn(CC(=O)N3CCCC3)c(=O)c2c1-c1cccc(Cl)c1 [3-Cl—Ph / Me] | 170 ± 4.7 | 16 | 301 | 211 ± 14.7 | 36 | 877 | 190 ± 6.3 | 37 | 830
5 | Cc1sc2ncn(CC(=O)N3CCCC3)c(=O)c2c1-c1cccc(I)c1 [3-I—Ph / Me] | 246 ± 14.9 | 3.7 | 249 | 401 ± 36.4 | 7.6 | 622 | 364 ± 31.6 | 15 | 1068
6 | Cc1sc2ncn(CC(=O)N3CCCC3)c(=O)c2c1-c1cccc(N=[N+]=[N-])c1 [3-N3—Ph / Me] | 176 ± 8.1 | 23.8 | 295 | 264 ± 17.7 | 10 | 613 | 175 ± 9.4 | 10 | 592
7 | Cc1sc2ncn(CC(=O)N3CCCC3)c(=O)c2c1-c1cccc(-n2ccnc2)c1 [3-N-imidazolyl-Ph / Me] | 120 ± 5.8 | 102 | 261 | 112 ± 1.3 | 191 | 453 | 99 ± 3.4 | 80 | 207
8 | Cc1sc2ncn(CC(=O)N3CCCC3)c(=O)c2c1-c1cccc([N+](=O)[O-])c1 [3-NO2—Ph / Me] | 185 ± 4.8 | 12 | 304 | 321 ± 13.6 | 36 | 1483 | 253 ± 13.3 | 60 | 1860
9 | Cc1sc2ncn(CC(=O)N3CCCC3)c(=O)c2c1-c1ccc(OCc2ccccc2)cc1 [4-BnO—Ph / Me] | 118 ± 5.2 | 11 | 147 | 135 ± 5.4 | 35 | 392 | 131 ± 3.7 | 25 | 291
10 | Cc1sc2ncn(CC(=O)N3CCCC3)c(=O)c2c1-c1ccc(Br)cc1 [4-Br—Ph / Me] | – | 11.3 | 163 | – | 60 | 449 | – | 79 | 400
11 | O=C(Cn1cnc2sc3c(c2c1=O)CCCC3)c1ccc([N+](=O)[O-])cc1 [Compound 4-NO2] | 94 ± 1.3 | – | – | 93 ± 2.0 | – | – | 97 ± 1.1 | – | –

More lines, now with the values ahead:

Row | I10 μM/ICONTROL (mean ± SEM, %) Glu N2B [1] [%] | EC50 [1] [µM] | maximal potentiation Glu N2B [1] [%] | I10 μM/ICONTROL (mean ± SEM, %) Glu N2C [2] [%] | EC50 [2] [µM] | maximal potentiation Glu N2C [2] [%] | I10 μM/ICONTROL (mean ± SEM, %) Glu N2D [3] [%] | EC50 [3] [µM] | maximal potentiation Glu N2D [3] [%] | Structure (SMILES)
12 | – | 46 | 314 | – | 76 | 770 | – | 72 | 512 | O=C(Cn1cnc2scc(-c3ccc(Cl)cc3)c2c1=O)N1CCCC1 [4-Cl—Ph / H]
13 | – | 11 | 223 | – | 15 | 347 | – | 23 | 381 | Cc1sc2ncn(CC(=O)N3CCCC3)c(=O)c2c1-c1ccc(Cl)cc1 [4-Cl—Ph / Me]
14 | – | 39 | 223 | – | 66 | 417 | – | 58 | 355 | CCc1ccc(-c2csc3ncn(CC(=O)N4CCCC4)c(=O)c23)cc1 [4-Et—Ph / H]
15 | – | 54 | 213 | – | 81 | 448 | – | 124 | 428 | Cc1sc2ncn(CC(=O)N3CCCC3)c(=O)c2c1-c1ccc(F)cc1 [4-F—Ph / Me]
16 | 121 ± 5.7 | 75 | 262 | 110 ± 2.1 | 89 | 369 | 101 ± 1.8 | 45 | 206 | O=C(Cn1cnc2scc(-c3ccc(I)cc3)c2c1=O)N1CCCC1 [4-I—Ph / H]
17 | 102 ± 4.6 | – | – | 99 ± 2.5 | – | – | 96 ± 2.6 | – | – | CSc1ccc(-c2csc3ncn(CC(=O)N4CCCC4)c(=O)c23)cc1 [4-MeS—Ph / H]
18 | – | 109 | 226 | – | 207 | 597 | – | 170 | 560 | Cc1ccc(-c2csc3ncn(CC(=O)N4CCCC4)c(=O)c23)cc1 [4-Me—Ph / H]
19 | 134 ± 6.7 | 88 | 353 | 166 ± 7.2 | 102 | 918 | 147 ± 6.3 | 134 | 730 | [N-]=[N+]=Nc1ccc(-c2csc3ncn(CC(=O)N4CCCC4)c(=O)c23)cc1 [4-N3—Ph / H]
20 | 135 ± 5.5 | 54 | 304 | 146 ± 6.4 | 54 | 485 | 128 ± 2.6 | 50 | 426 | Cc1sc2ncn(CC(=O)N3CCCC3)c(=O)c2c1-c1ccc(N=[N+]=[N-])cc1 [4-N3—Ph / Me]
21 | 104 ± 1.7 | – | – | 116 ± 4.5 | – | – | 103 ± 2.2 | – | – | Cc1sc2ncn(CC(=O)N3CCCC3)c(=O)c2c1-c1ccc(N)cc1 [4-NH2—Ph / Me]
22 | – | 15 | 147 | – | 18 | 186 | – | 18 | 232 | CCOc1ccc(-c2c(C)sc3ncn(CC(=O)N4CCCC4)c(=O)c23)cc1 [4-OEt—Ph / Me]
23 | 82 ± 1.0 | – | – | 98 ± 2.3 | – | – | 99 ± 2.5 | – | – | Cc1sc2ncn(CC(=O)N3CCCC3)c(=O)c2c1-c1ccc(O)cc1 [4-OH—Ph / Me]
24 | 121 ± 6.9 | 33 | 174 | 100 ± 2.5 | – | – | 98 ± 1.4 | – | – | CC(C)c1ccc(-c2csc3ncn(CC(=O)N4CCCC4)c(=O)c23)cc1 [4-^iPr—Ph / H]
25 | 115 ± 5.4 | 15 | 153 | 120 ± 3.7 | 14 | 168 | 148 ± 9.1 | 12 | 262 | Cc1sc2ncn(CC(=O)N3CCCC3)c(=O)c2c1-c1ccccc1 [Ph / Me]
26 | 116 ± 4.0 | – | – | 98 ± 7.9 | – | – | 98 ± 4.3 | – | – | C#CCn1cnc2sc(C)c(-c3cccc(Cl)c3)c2c1=O [—C≡CH]

Reference: US12006328B2, “Thieno[2,3-d]pyrimidin-4-one derivatives as NMDAR modulators and uses related thereto” (Emory University, priority 2014, dated 2024)
